Assay results taken from PubChem BioAssay AID2060614 (Molecular Pharmacology Branch, DTP, NCI, 2025).
“And” between values parts separate entries of the source, which are not always exact repeats. Equal values may be shown once.

Test system: 598228-144-R-J1-PDC complex spheroids, viability
Assay: Anticancer human tumor 598228-144-R-J1-PDC patient-derived serous endometrial adenocarcinoma cell line growth inhibition [CLK]
Details: for viability, T/C: stronger effect = lower value
Summary of the method: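 Multi-cell-type spheroids combined patient-derived tumor cells with HUVEC endothelial cells and human mesenchymal stem cells. Paired agents were dosed in half-log steps down from about clinical Cmax, or from 10 microM where Cmax was unknown.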

[1] = curve of first compound, second compound 0.0316 µM
[2] = curve of first compound, second compound 0.1 µM
[3] = curve of first compound, second compound 0.316 µM
[4] = curve of first compound, second compound 1 µM
[5] = curve of first compound, second compound 3.16 µM
[6] = curve of first compound, second compound 10 µM
[7] = second compound 0.0316 µM, first compound 0.0316 µM
[8] = second compound 0.0316 µM, first compound 0.1 µM
[9] = second compound 0.0316 µM, first compound 0.316 µM
[10] = second compound 0.0316 µM, first compound 1 µM
[11] = second compound 0.0316 µM, first compound 3.16 µM
[12] = second compound 0.0316 µM, first compound 10 µM
[13] = second compound 0.1 µM, first compound 0.0316 µM
[14] = second compound 0.1 µM, first compound 0.1 µM
[15] = second compound 0.1 µM, first compound 0.316 µM
[16] = second compound 0.1 µM, first compound 1 µM
[17] = second compound 0.1 µM, first compound 3.16 µM
[18] = second compound 0.1 µM, first compound 10 µM
[19] = second compound 0.316 µM, first compound 0.0316 µM
[20] = second compound 0.316 µM, first compound 0.1 µM
[21] = second compound 0.316 µM, first compound 0.316 µM
[22] = second compound 0.316 µM, first compound 1 µM
[23] = second compound 0.316 µM, first compound 3.16 µM
[24] = second compound 0.316 µM, first compound 10 µM
[25] = second compound 1 µM, first compound 0.0316 µM
[26] = second compound 1 µM, first compound 0.1 µM
[27] = second compound 1 µM, first compound 0.316 µM
[28] = second compound 1 µM, first compound 1 µM
[29] = second compound 1 µM, first compound 3.16 µM
[30] = second compound 1 µM, first compound 10 µM
[31] = second compound 3.16 µM, first compound 0.0316 µM
[32] = second compound 3.16 µM, first compound 0.1 µM
[33] = second compound 3.16 µM, first compound 0.316 µM
[34] = second compound 3.16 µM, first compound 1 µM
[35] = second compound 3.16 µM, first compound 3.16 µM
[36] = second compound 3.16 µM, first compound 10 µM
[37] = second compound 10 µM, first compound 0.0316 µM
[38] = second compound 10 µM, first compound 0.1 µM
[39] = second compound 10 µM, first compound 0.316 µM
[40] = second compound 10 µM, first compound 1 µM
[41] = second compound 10 µM, first compound 3.16 µM
[42] = second compound 10 µM, first compound 10 µM
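Note: spheroids exposed to compounds for seven days before readout.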
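Throughout, for viability, T/C: 100% = DMSO vehicle control wells.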

## C#Cc1c(F)ccc2cc(O)cc(-c3ncc4c(N5CC6CCC(C5)N6)nc(OCC56CCCN5CC(F)C6)nc4c3F)c12 (stereo not drawn) + CNC(=O)c1ccc(Nc2nc(OC3CCCC3)c3c(-c4ccc5nc(C)oc5c4)c[nH]c3n2)c(OC)c1
[1]
  IC50: > 10 µM
[2]
  IC50: > 10 µM
[3]
  IC50: > 10 µM
[4]
  IC50: > 10 µM
[5]
  IC50: > 10 µM
[6]
  IC50: > 10 µM
[7]
  viability, T/C: 111%
[8]
  viability, T/C: 112%
[9]
  viability, T/C: 117%
[10]
  viability, T/C: 125%
[11]
  viability, T/C: 99.5%
[12]
  viability, T/C: 94.1%
[13]
  viability, T/C: 99.7%
[14]
  viability, T/C: 104%
[15]
  viability, T/C: 109%
[16]
  viability, T/C: 102%
[17]
  viability, T/C: 98.1%
[18]
  viability, T/C: 88.3%
[19]
  viability, T/C: 120%
[20]
  viability, T/C: 102%
[21]
  viability, T/C: 132%
[22]
  viability, T/C: 100%
[23]
  viability, T/C: 110%
[24]
  viability, T/C: 90.7%
[25]
  viability, T/C: 101%
[26]
  viability, T/C: 90.3%
[27]
  viability, T/C: 98.3%
[28]
  viability, T/C: 98.2%
[29]
  viability, T/C: 104%
[30]
  viability, T/C: 83.3%
[31]
  viability, T/C: 98.5%
[32]
  viability, T/C: 92.5%
[33]
  viability, T/C: 81.8%
[34]
  viability, T/C: 83.6%
[35]
  viability, T/C: 95.2%
[36]
  viability, T/C: 88.5%
[37]
  viability, T/C: 83.3%
[38]
  viability, T/C: 80.7%
[39]
  viability, T/C: 90.8%
[40]
  viability, T/C: 81.9%
[41]
  viability, T/C: 102%
[42]
  viability, T/C: 78.8%

## COc1c(OCCCN2CCOCC2)ccc2c3n(c(=NC(=O)c4cnc(N)nc4)nc12)CCN3
Compound 0.00316 µM
  viability, T/C: 80.5% and 77.9%
Compound 0.01 µM
  viability, T/C: 65.1% and 53.3%
Compound 0.0316 µM
  viability, T/C: 52.9% and 45.3%
Compound 0.1 µM
  viability, T/C: 34.8% and 27.9%
Compound 0.316 µM
  viability, T/C: 19.3% and 14.2%
Compound 1 µM
  viability, T/C: 8.63% and 7.29%
Curve of compound
  IC50: 0.0346 µM and 0.0175 µM

## CC(Nc1ccc2c(c1)OCCn1cc(N3C(=O)OCC3C(F)F)nc1-2)C(N)=O (stereo not drawn)
Compound 0.0316 µM
  viability, T/C: 82.3% and 77.2%
Compound 0.1 µM
  viability, T/C: 67.8% and 63.2%
Compound 0.316 µM
  viability, T/C: 48% and 46.3%
Compound 1 µM
  viability, T/C: 46.3% and 36.9%
Compound 3.16 µM
  viability, T/C: 33.6% and 29.7%
Compound 10 µM
  viability, T/C: 28.9% and 24%
Curve of compound
  IC50: 0.418 µM and 0.264 µM

## CC(Nc1ccc2c(c1)OCCn1cc(N3C(=O)OCC3C(F)F)nc1-2)C(N)=O (stereo not drawn) + CN1CCN(c2cc(C(=O)Nc3cc4cc(-c5cnn(C)c5)ccc4cn3)ccn2)CC1
[1]
  IC50: 0.885 µM
[2]
  IC50: 0.271 µM
[3]
  IC50: < 0.0316 µM
[4]
  IC50: < 0.0316 µM
[5]
  IC50: < 0.0316 µM
[6]
  IC50: < 0.0316 µM
[7]
  viability, T/C: 97.7%
[8]
  viability, T/C: 66.2%
[9]
  viability, T/C: 67%
[10]
  viability, T/C: 47.1%
[11]
  viability, T/C: 40.3%
[12]
  viability, T/C: 24.4%
[13]
  viability, T/C: 87.9%
[14]
  viability, T/C: 64.3%
[15]
  viability, T/C: 44.9%
[16]
  viability, T/C: 38.6%
[17]
  viability, T/C: 26.5%
[18]
  viability, T/C: 18.3%
[19]
  viability, T/C: 12.3%
[20]
  viability, T/C: 9.13%
[21]
  viability, T/C: 10.7%
[22]
  viability, T/C: 6.85%
[23]
  viability, T/C: 4.58%
[24]
  viability, T/C: 7.75%
[25]
  viability, T/C: 1.13%
[26]
  viability, T/C: 0.87%
[27]
  viability, T/C: 2.39%
[28]
  viability, T/C: 0.6%
[29]
  viability, T/C: 0.73%
[30]
  viability, T/C: 0.42%
[31]
  viability, T/C: 1.56%
[32]
  viability, T/C: 1.01%
[33]
  viability, T/C: 0.62%
[34]
  viability, T/C: 0.69%
[35]
  viability, T/C: 1.66%
[36]
  viability, T/C: 1.62%
[37]
  viability, T/C: 0.62%
[38]
  viability, T/C: 0.46%
[39]
  viability, T/C: 1.49%
[40]
  viability, T/C: 0.44%
[41]
  viability, T/C: 4.05%
[42]
  viability, T/C: 2.58%
